Test results taken from patent publication US20060251714A1, “Pharmaceutical formulations of amyloid inhibiting compounds” (priority 2005, published 2006).

Tests used:
[1] = Hygroscopicity of the drug substance; type: physicochemical
Description: Furthermore, the non-hygroscopic nature of the acid form makes it desirable as active pharmaceutical ingredient. To further protect against any possible gastrointestinal intolerance that could result from the acid form, the tablets are enteric-coated and a modified-release agent is added to control any rapid release of the drug in the stomach and the intestine, respectively.

[2] = test system: mild to moderate AD patients; experiment: Example 11: open-label extension in AD patients, psychometric tests (ADAS-cog, CDR); type: in vivo, human; details: for average CDR score (change): after 20 months total on study medication, reported 12-month mean change +1.4 to 2.2 points in comparable patients
From the text: The ADAS-cog test is described in […] Annals of Neurology 23:477-484, which is incorporated herein by reference. It is a validated scale developed specifically as a research instrument to evaluate the severity of cognitive deficits characteristic of patients with AD. This test can usually be administered to participants in less than one hour. The ADAS-cog ranges from 0 to 70 points, with higher scores indicating a greater degree of cognitive impairment. Improved performance can be measured in patients treated with formulations of the invention compared to placebo-treated patients at various time intervals. Improvement can be measured by detecting an improved score in the treated patients compared to untreated controls after 6 months, preferably 12 months, more preferably 18 months or longer. […] Patients with Alzheimer's disease typically show an annual increase in ADAS-cog scores of from about 4-9. An improvement would provide for a lessening in the increase compared to untreated controls, for example, an annual increase of less than about 5 points or 4 points, preferably 3 points, more preferably 2 points or 1 point or even a stabilization or decrease in the score.
The CDR is described in Morris, J (1993) Neurology 43: 2412-2414, which is incorporated herein by reference. Further to the discussion of the CDR test below, it is a global rating scale of dementia that is derived from ratings of impairment assigned by an independent rater in six domains, after approximately a 90-minute interview of the caregiver and participant (Hughes C P, Berg L, Danziger W L, et al. A New Clinical Scale for the Staging of Dementia. Brit. J. Psychiat 1982; 140: 566-572). The CDR scale is from 0-18 with a higher score indicating a worsening impairment. Impairment in each of the six domains is rated as “none” (O), “questionable” (0.5), “mild” (1), “moderate” (2) or “severe” (3). Improvement can be measured by detecting a lower score in the treated patients compared to controls after 6 months, preferably 12 months, more preferably 18 months or longer. […] Patients with Alzheimer's disease typically show an annual increase in CDR scores of from about 1-3. An improvement would provide for an annual increase of less than about 3 points or 2 points, preferably 1 point, more preferably 0.5 points or 0.25 points or even an improvement (reduction) in the score.
The patients from the clinical studies in Example 10 are offered 3-APS (formulation of Table 5 above) at 150 mg BID for an additional 17 months (thus, 20 months total) in an open-label study. For doses at multiples of 50 mg, multiple 50 mg tables are administered. Twenty-four mild to moderate AD patients complete the study. Psychometric tests (ADAS-cog) are performed at each visit, that is every 3 months for the first 9 months and every 4 months for the last […]. Overall, approximately 70% of the mild AD patients show stabilized or improved cognitive function tests after 20 months.

[3] = Example 12: Phase II pilot study in CAA patients with lobar cerebral hemorrhage, plasma pharmacokinetics; type: in vivo, human; details: for AUC(0-inf) / Cmax / AUC(0-t): human, plasma, oral; for AUC(0-inf): mean, only patients with estimable elimination rate constant
From the text: (§1) In the following examples and elsewhere herein, terms are as defined below. The pharmacokinetic parameters were derived by non-compartmental analysis using WinNonlin® (Pharsight Corporation, Mountain View, Calif.) or SAS® for Windows® (SAS Institute Inc., Cary, N.C.).
AUCss—the area under the plasma concentrations versus time curve during a dosing interval at steady state.
A Phase II pilot study of the safety, tolerability and pharmacokinetics of 3-APS (formulation of Table 5 above) in patients with lobar cerebral hemorrhage related to Cerebral Amyloid Angiopathy (CAA). For doses at multiples of 50 mg, multiple 50 mg tables are administered. A multicenter, randomized, double-blind, and parallel designed study is conducted in the United States with 3-APS in patients who survived a lobar cerebral hemorrhage related to cerebral amyloid angiopathy (CAA). The main objective of this study is to assess the safety and tolerability of 3-APS and to characterize its pharmacokinetics in CAA patients.
A total of 24 patients who have had lobar cerebral hemorrhage are randomized to receive in a 1:1:1 ratio 3-APS 50, 100 or 150 mg BID for 12 weeks. A lumbar puncture is performed on an optional basis at Weeks 0 and 12 to assess the pharmacological effect of 3-APS on Aβ40, Aβ42 and tau concentrations in cerebrospinal fluid (CSF) and to measure the drug concentration in the CSF. Rating instruments (NIHSS, Barthel Index, ADAS-cog and EXIT25) are administered at Weeks 0 and 12 to evaluate the neurological and cognitive functions as well as the daily functioning.
For pharmacokinetic investigations, blood samples are collected from each patient prior to dosing and at specified time points through 12 h post-dose after the first dose (Week 0) and the last dose (Week 12). Blood samples are also collected prior to the first dose of the day during Week 2, 4 and 8 visits. CSF samples are obtained by lumbar puncture prior to dosing on Week 0 and approximately 5 hours post-dose on Week 12.

[4] = Example 13: single 150 mg dose of Modified-Release Coated Tablets in healthy elderly male volunteers, plasma pharmacokinetics; type: in vivo; details: human, single oral 150 mg (3 × 50 mg Table 5 tablets), elderly male subjects; for AUC(0-inf) / Cmax / AUC(0-t): male, po, 150 mg; for AUC(0-t): read-out: AUC0-Tlast
Description: as §1
For the 150 mg dose, three 50 mg tables are administered.

[5] = Fasting Conditions, n = 11, mean

In the case of `NCCCS(=O)(=O)O` [3-APS, 3-amino-1-propanesulfonic acid], the hygroscopic nature [1] is reported as “non-hygroscopic”, the “mild AD patients showing stabilized or improved cognitive function tests” value ([2]; 150 mg BID open-label (Table 5 tablet), after 20 months) is reported as “approximately 70%” and the “change from baseline in average ADAS-cog score” value ([2]; mild AD patients (n=13), 150 mg BID open-label, 20 months, comparable historical controls +8.6 points) is reported as “+3.5 points”. For the same compound, the “average CDR score (change)” value ([2]; mild AD patients) was “+2.36 points”, the “average ADAS-cog score (change)” value ([2]; mild to moderate AD patients (n=24), 150 mg BID open-label, 20 months, comparable historical controls +10.3 points) was “+7.8 points” and the “average CDR score (change)” value ([2]; moderate AD patients) was 2.77 points. For the same compound, the Tmax ([3]; 50 mg BID (Table 5 tablet), Week 0 (single dose), n = 8, median) was 4.5 h, the Tmax ([3]; 50 mg BID (Table 5 tablet), Week 12 (repeated), n = 8, median) was 4.4 h and the Tmax ([3]; 100 mg BID (Table 5 tablet), Week 12 (repeated), n = 6, median) was 5.15 h. The Tmax ([3]; 150 mg BID (Table 5 tablet), Week 12 (repeated), n = 3, median) was 5.4 h, the AUC(0-inf) ([3]; 50 mg BID (Table 5 tablet), Week 0 (single dose)) was 1640 ng·h/mL and the Cmax ([3]; 50 mg, 50 mg BID (Table 5 tablet), Week 0 (single dose), n = 8, mean) was 346 ng/mL. The AUC(0-t) ([3]; 50 mg, 50 mg BID (Table 5 tablet), Week 0 (single dose), n = 8, mean, read-out: AUC0-t) was 1280 ng·h/mL, the Cmax ([3]; 50 mg, 50 mg BID (Table 5 tablet), Week 12 (repeated), n = 8, mean) was 171 ng/mL and the AUC(0-t) ([3]; 50 mg, 50 mg BID (Table 5 tablet), Week 12 (repeated), n = 8, mean, read-out: AUC0-t (AUCss for Week 12)) was 947 ng·h/mL. It also gave an AUC(0-inf) ([3]; 100 mg BID (Table 5 tablet), Week 0 (single dose)) of 2780 ng·h/mL, a Cmax ([3]; 100 mg, 100 mg BID (Table 5 tablet), Week 0 (single dose), n = 7, mean) of 552 ng/mL and an AUC(0-t) ([3]; 100 mg, 100 mg BID (Table 5 tablet), Week 0 (single dose), n = 7, mean, read-out: AUC0-t) of 2630 ng·h/mL. It also gave a Cmax ([3]; 100 mg, 100 mg BID (Table 5 tablet), Week 12 (repeated), n = 6, mean) of 806 ng/mL, an AUC(0-t) ([3]; 100 mg, 100 mg BID (Table 5 tablet), Week 12 (repeated), n = 6, mean, read-out: AUC0-t (AUCss for Week 12)) of 3700 ng·h/mL and an AUC(0-inf) ([3]; 150 mg BID (Table 5 tablet), Week 0 (single dose)) of 3690 ng·h/mL. The Cmax ([3]; 150 mg, 150 mg BID (Table 5 tablet), Week 0 (single dose), n = 5, mean) was 857 ng/mL, the AUC(0-t) ([3]; 150 mg, 150 mg BID (Table 5 tablet), Week 0 (single dose), n = 5, mean, read-out: AUC0-t) was 3900 ng·h/mL and the Cmax ([3]; 150 mg, 150 mg BID (Table 5 tablet), Week 12 (repeated), n = 3, mean) was 1030 ng/mL. It also gave an AUC(0-t) ([3]; 150 mg, 150 mg BID (Table 5 tablet), Week 12 (repeated), n = 3, mean, read-out: AUC0-t (AUCss for Week 12)) of 6750 ng·h/mL, a Tmax ([4]; Fed Conditions, n = 10, median) of 5.5 h and an AUC(0-inf) [4, 5] of 3280 ng·h/mL. It also gave a Cmax [4, 5] of 772 ng/mL, an AUC(0-t) [4, 5] of 3210 ng·h/mL and an AUC(0-inf) ([4]; Fed Conditions, n = 10, mean) of 5310 ng·h/mL. The Cmax ([4]; Fed Conditions, n = 10, mean) was 980 ng/mL and the AUC(0-t) ([4]; Fed Conditions, n = 10, mean) was 5160 ng·h/mL.
